pIC50: −log10 of the molar value.
Molecular target: T1, EZH2 (Homo sapiens, UniProt Q15910)
T1 construct: GRITS37108
Assay: EZH2 methyltransferase SPA assay (3H-SAM, Hela nucleosomes)
Assay type: biochemical
Conditions: not given

T1 sequence (Q15910 whole entry): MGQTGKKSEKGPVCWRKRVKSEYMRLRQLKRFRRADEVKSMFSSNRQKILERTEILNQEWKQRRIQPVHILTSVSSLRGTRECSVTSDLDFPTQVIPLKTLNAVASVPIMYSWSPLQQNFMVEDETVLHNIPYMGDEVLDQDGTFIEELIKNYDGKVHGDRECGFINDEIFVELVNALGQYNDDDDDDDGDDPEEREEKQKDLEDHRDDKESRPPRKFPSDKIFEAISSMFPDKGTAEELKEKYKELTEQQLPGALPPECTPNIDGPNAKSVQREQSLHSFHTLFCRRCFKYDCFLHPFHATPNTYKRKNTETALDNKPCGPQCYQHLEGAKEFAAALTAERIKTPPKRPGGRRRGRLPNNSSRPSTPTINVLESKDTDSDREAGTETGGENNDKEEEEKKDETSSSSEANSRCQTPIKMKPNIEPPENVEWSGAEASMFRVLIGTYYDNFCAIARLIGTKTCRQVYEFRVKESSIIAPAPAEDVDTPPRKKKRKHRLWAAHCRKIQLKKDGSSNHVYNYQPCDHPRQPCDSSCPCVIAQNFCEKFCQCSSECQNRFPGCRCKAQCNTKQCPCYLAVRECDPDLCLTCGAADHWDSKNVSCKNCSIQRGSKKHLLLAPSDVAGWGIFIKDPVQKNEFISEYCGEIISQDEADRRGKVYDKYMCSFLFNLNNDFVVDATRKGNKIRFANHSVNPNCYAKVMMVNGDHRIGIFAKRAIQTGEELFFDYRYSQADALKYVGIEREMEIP
T1 sequence (O75530 whole entry partner): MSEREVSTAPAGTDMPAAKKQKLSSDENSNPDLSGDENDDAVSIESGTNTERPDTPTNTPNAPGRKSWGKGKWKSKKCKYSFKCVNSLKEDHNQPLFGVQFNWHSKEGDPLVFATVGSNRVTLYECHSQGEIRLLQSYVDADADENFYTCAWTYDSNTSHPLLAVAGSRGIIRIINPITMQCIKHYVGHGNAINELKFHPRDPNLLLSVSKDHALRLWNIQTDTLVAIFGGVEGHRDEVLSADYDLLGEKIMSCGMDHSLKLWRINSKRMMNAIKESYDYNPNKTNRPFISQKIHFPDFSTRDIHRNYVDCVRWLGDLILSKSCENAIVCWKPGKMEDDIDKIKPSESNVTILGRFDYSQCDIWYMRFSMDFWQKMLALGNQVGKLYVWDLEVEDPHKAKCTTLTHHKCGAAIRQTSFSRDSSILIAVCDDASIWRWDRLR
T1 sequence (Q15022 whole entry partner): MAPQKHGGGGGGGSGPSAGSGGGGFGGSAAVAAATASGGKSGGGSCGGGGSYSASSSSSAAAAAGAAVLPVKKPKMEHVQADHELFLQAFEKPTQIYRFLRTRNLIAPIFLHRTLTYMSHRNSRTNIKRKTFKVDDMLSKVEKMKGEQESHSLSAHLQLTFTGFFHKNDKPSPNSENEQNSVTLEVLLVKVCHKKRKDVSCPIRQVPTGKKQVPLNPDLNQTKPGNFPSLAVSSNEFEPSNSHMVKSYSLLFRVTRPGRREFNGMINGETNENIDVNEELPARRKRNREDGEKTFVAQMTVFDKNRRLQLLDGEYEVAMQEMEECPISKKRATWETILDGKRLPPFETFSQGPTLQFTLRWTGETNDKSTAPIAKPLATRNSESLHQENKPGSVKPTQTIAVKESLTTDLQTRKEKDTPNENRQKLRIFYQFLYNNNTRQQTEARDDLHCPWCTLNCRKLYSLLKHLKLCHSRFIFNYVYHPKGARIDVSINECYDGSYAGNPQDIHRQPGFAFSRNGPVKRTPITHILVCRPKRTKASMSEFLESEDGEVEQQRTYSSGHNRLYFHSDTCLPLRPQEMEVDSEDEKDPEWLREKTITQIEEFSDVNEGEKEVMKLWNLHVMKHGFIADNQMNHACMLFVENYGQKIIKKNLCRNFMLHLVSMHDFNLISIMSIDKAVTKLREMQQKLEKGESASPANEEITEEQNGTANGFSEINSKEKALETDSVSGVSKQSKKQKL

pIC50	Molecule
5.33	Cc1[nH]c(=O)c(CNC(=O)c2cc(-c3ccncc3)nc3c2cnn3C(C)C)c(C)c1F [Ex 20, N-[(5-Fluoro-4,6-dimethyl-2-oxo-1,2-dihydro-3-pyridinyl)methyl]-1-(1-methylethyl)-6-(4-pyridinyl]-1H-pyrazolo[3,4-b]pyridine-4-carboxamide]

Same assay, conditions: 10 nM EZH2, 7 μg/ml Hela nucleosomes, 2-parameter IC50 fit; single-point-in-time values; read-out: IC50

Molecule	pIC50
6-{[4-(Aminocarbonyl)phenyl]amino}-N-[(4,6-dimethyl-2-oxo-1,2-dihydro-3-pyridinyl)methyl]-1-(1-methylethyl)-1H-pyrazolo[3,4-b]pyridine-4-carboxamide [Ex 86]	6.85

Same assay, conditions: read-out: IC50

pIC50	Molecule
6.89	CNC(=O)c1ccc(-c2cc(C(=O)NCc3c(C)cc(C)[nH]c3=O)c3cnn(C(C)C)c3n2)cc1 [Ex 46, N-[(4,6-Dimethyl-2-oxo-1,2-dihydro-3-pyridinyl)methyl]-6-{4-[(methylamino)carbonyl]phenyl}-1-(1-methylethyl)-1H-pyrazolo[3,4-b]pyridine-4-carboxamide]
6.77	Cc1cc(C)c(CNC(=O)c2cc(-c3cnc(N)nc3)nc3c2cnn3C(C)C)c(=O)[nH]1 [Ex 72, 6-(2-Amino-5-pyrimidinyl)-N-[(4,6-dimethyl-2-oxo-1,2-dihydro-3-pyridinyl)methyl]-1-(1-methylethyl)-1H-pyrazolo[3,4-b]pyridine-4-carboxamide]
6.13	Cc1cc(-c2ccccc2)c(CNC(=O)c2cc(-c3ccncc3)nc3c2cnn3C(C)C)c(=O)[nH]1 [Ex 14, 1-(1-Methylethyl)-N-[(6-methyl-2-oxo-4-phenyl-1,2-dihydro-3-pyridinyl)methyl]-6-(4-pyridinyl)-1H-pyrazolo[3,4-b]pyridine-4-carboxamide]
6.46	Cc1cc(C)c(CNC(=O)c2cc(N3CCNCC3)nc3c2cnn3C(C)C)c(=O)[nH]1 [Ex 28, N-[(4,6-Dimethyl-2-oxo-1,2-dihydro-3-pyridinyl)methyl]-1-(1-methylethyl)-6-(1-piperazinyl)-1H-pyrazolo[3,4-b]pyridine-4-carboxamide]
6.56	Cc1cc(C)c(CNC(=O)c2cc(C(C)(C)C)nc3c2c(C)nn3C(C)(C)C)c(=O)[nH]1 [Ex 118, 1,6-Bis(1,1-dimethylethyl)-N-[(4,6-dimethyl-2-oxo-1,2-dihydro-3-pyridinyl)methyl]-3-methyl-1H-pyrazolo[3,4-b]pyridine-4-carboxamide]
6.57	Cc1cc(C)c(CNC(=O)c2cc(-c3ccc(-c4cn[nH]c4)cc3)nc3c2cnn3C(C)C)c(=O)[nH]1 [Ex 120, N-[(4,6-Dimethyl-2-oxo-1,2-dihydro-3-pyridinyl)methyl]-1-(1-methylethyl)-6-[4-(1H-pyrazol-4-yl)phenyl]-1H-pyrazolo[3,4-b]pyridine-4-carboxamide]
7.09	Cc1cc(C)c(CNC(=O)c2cc(-c3ccc4[nH]nnc4c3)nc3c2cnn3C(C)C)c(=O)[nH]1 [Ex 76, 6-(1H-1,2,3-Benzotriazol-5-yl)-N-[(4,6-dimethyl-2-oxo-1,2-dihydro-3-pyridinyl)methyl]-1-(1-methylethyl)-1H-pyrazolo[3,4-b]pyridine-4-carboxamide]
7.12	Cc1cc(C)c(CNC(=O)c2cc(C3CC3)nc3c2c(C)nn3C(C)(C)C)c(=O)[nH]1 [Ex 107, 6-Cyclopropyl-1-(1,1-dimethylethyl)-N-[(4,6-dimethyl-2-oxo-1,2-dihydro-3-pyridinyl)methyl]-3-methyl-1H-pyrazolo[3,4-b]pyridine-4-carboxamide]
5.98	Cc1cc(C)c(CNC(=O)c2cc(-c3ccccc3[N+](=O)[O-])nc3c2cnn3C(C)C)c(=O)[nH]1 [Ex 124, N-[(4,6-Dimethyl-2-oxo-1,2-dihydro-3-pyridinyl)methyl]-1-(1-methylethyl)-6-(2-nitrophenyl)-1H-pyrazolo[3,4-b]pyridine-4-carboxamide]
6.75	Cc1cc(C2CCCCC2)c(CNC(=O)c2cc(-c3ccncc3)nc3c2cnn3C(C)C)c(=O)[nH]1 [Ex 15, N-[(4-Cyclohexyl-6-methyl-2-oxo-1,2-dihydro-3-pyridinyl)methyl]-1-(1-methylethyl)-6-(4-pyridinyl)-1H-pyrazolo[3,4-b]pyridine-4-carboxamide]
6.16	Cc1cc(C)c(CNC(=O)c2cc(N3CCCCC3)nc3c2cnn3C(C)C)c(=O)[nH]1 [Ex 25, N-[(4,6-Dimethyl-2-oxo-1,2-dihydro-3-pyridinyl)methyl]-1-(1-methylethyl)-6-(1-piperidinyl)-1H-pyrazolo[3,4-b]pyridine-4-carboxamide]
7.24	Cc1cc(C)c(CNC(=O)c2cc(-c3ccc(N4CCOCC4)nc3)nc3c2cnn3C(C)C)c(=O)[nH]1 [Ex 67, N-[(4,6-Dimethyl-2-oxo-1,2-dihydro-3-pyridinyl)methyl]-1-(1-methylethyl)-6-[6-(4-morpholinyl)-3-pyridinyl]-1H-pyrazolo[3,4-b]pyridine-4-carboxamide]
6.09	Cc1cc(C)c(CNC(=O)c2cc(Cl)nc3c2c(C)nn3C(C)C)c(=O)[nH]1 [Ex 2, 6-Chloro-N-[(4,6-dimethyl-2-oxo-1,2-dihydro-3-pyridinyl)methyl]-3-methyl-1-(1-methylethyl)-1H-pyrazolo[3,4-b]pyridine-4-carboxamide]
7.51	Cc1cc(C)c(CNC(=O)c2cc(Nc3ccc4[nH]c(=O)[nH]c4c3)nc3c2cnn3C(C)C)c(=O)[nH]1 [Ex 85, N-[(4,6-Dimethyl-2-oxo-1,2-dihydro-3-pyridinyl)methyl]-1-(1-methylethyl)-6-[(2-oxo-2,3-dihydro-1H-benzimidazol-5-yl)amino]-1H-pyrazolo[3,4-b]pyridine-4-carboxamide]
6.79	Cc1cc(C)c(CNC(=O)c2cc(-c3ccc(NS(C)(=O)=O)cc3)nc3c2cnn3C(C)C)c(=O)[nH]1 [Ex 51, N-[(4,6-Dimethyl-2-oxo-1,2-dihydro-3-pyridinyl)methyl]-1-(1-methylethyl)-6-{4-[(methylsulfonyl]amino]phenyl}-1H-pyrazolo[3,4-b]pyridine-4-carboxamide]
5.85	Cc1cc(C(F)(F)F)c(CNC(=O)c2cc(C3CC3)nc3c2cnn3C(C)C)c(=O)[nH]1 [Ex 23, 6-Cyclopropyl-1-(1-methylethyl)-N-{[6-methyl-2-oxo-4-(trifluoromethyl)-1,2-dihydro-3-pyridinyl]methyl}-1H-pyrazolo[3,4-b]pyridine-4-carboxamide]
7.62	Cc1cc(C)c(CNC(=O)c2cc(-c3ccc(N4CCN(C)CC4)nc3)nc3c2c(C)nn3C(C)C)c(=O)[nH]1 [Ex 27, N-[(4,6-Dimethyl-2-oxo-1,2-dihydro-3-pyridinyl)methyl]-3-methyl-1-(1-methylethyl)-6-[6-(4-methyl-1-piperazinyl)-3-pyridinyl]-1H-pyrazolo[3,4-b]pyridine-4-carboxamide]
6.16	Cc1cc(C)c(CNC(=O)c2cc(C3CC3)nc3c2c(C)nn3C2CCOCC2)c(=O)[nH]1 [Ex 112, 6-Cyclopropyl-N-[(4,6-dimethyl-2-oxo-1,2-dihydro-3-pyridinyl)methyl]-3-methyl-1-(tetrahydro-2H-pyran-4-yl)-1H-pyrazolo[3,4-b]pyridine-4-carboxamide]
7.09	Cc1cc(C)c(CNC(=O)c2cc(-c3ccnc(N4CCOCC4)c3)nc3c2cnn3C(C)C)c(=O)[nH]1 [Ex 66, N-[(4,6-Dimethyl-2-oxo-1,2-dihydro-3-pyridinyl)methyl]-1-(1-methylethyl)-6-[2-(4-morpholinyl)-4-pyridinyl]-1H-pyrazolo[3,4-b]pyridine-4-carboxamide]

— patent publication US8637509B2, “Azaindazoles” (GlaxoSmithKline LLC, priority 2010, dated 2014)
